Test results reported in patent US10004701B2, “Methods and compositions for treating infection” (UNIVERSITY OF ROCHESTER, priority 2012, dated 2018).
Counter-ions that a name gives are not always drawn. Like-named read-outs stand apart in the source and are kept apart here.

Columns and labels:
Test in all cases: AK assay 384-well format, Prestwick library screening
[1] = test system: A. baumannii strain 98-37-09; assay type: cell-based, Acinetobacter baumannii; settings: for fold induction at 50 µM: Acinetobacter baumannii, 983709, 3 h
E. coli = assay type: cell-based, Escherichia coli; settings: for fold induction at 50 µM: Escherichia coli, 3 h
E. faecium = assay type: cell-based, Enterococcus faecium; settings: for fold induction at 50 µM: Enterococcus faecium, 3 h
E. cloacae = assay type: cell-based, Enterobacter cloacae; settings: for fold induction at 50 µM: Enterobacter cloacae, 3 h
K. pneumoniae = assay type: cell-based, Klebsiella pneumoniae; settings: for fold induction at 50 µM: Klebsiella pneumoniae, 3 h
P. aeruginosa = assay type: cell-based, Pseudomonas aeruginosa; settings: for fold induction at 50 µM: Pseudomonas aeruginosa, 3 h
[2] = test system: S. aureus strain USA300-0114; assay type: cell-based, Staphylococcus aureus; settings: for fold induction at 50 µM: Staphylococcus aureus, USA300, 3 h
[3] = 50 μM final drug concentration, planktonic, cutoff for positive 3-fold increase
[4] = 50 μM final drug concentration, 384-well format, cutoff for positive-scoring molecules 3-fold increase
[5] = 50 μM final drug concentration, planktonic, cutoff for positive-scoring molecules 3-fold increase
[6] = 50 μM final drug concentration, planktonic, cutoff for positive 3-fold increase, read-out: AK-based Prestwick Library Screening Results, A. baumannii (fold increase in extracellular AK activity)
[7] = 50 μM final drug concentration, planktonic, cutoff for positive 3-fold increase, read-out: AK-based Prestwick Library Screening Results, E. coli (fold increase in extracellular AK activity)
[8] = 50 μM final drug concentration, planktonic, cutoff for positive 3-fold increase, read-out: AK-based Prestwick Library Screening Results, E. faecium (fold increase in extracellular AK activity)
[9] = 50 μM final drug concentration, planktonic, cutoff for positive 3-fold increase, read-out: AK-based Prestwick Library Screening Results, E. cloacae (fold increase in extracellular AK activity)
[10] = 50 μM final drug concentration, planktonic, cutoff for positive 3-fold increase, read-out: AK-based Prestwick Library Screening Results, K. pneumoniae (fold increase in extracellular AK activity)
[11] = 50 μM final drug concentration, planktonic, cutoff for positive 3-fold increase, read-out: AK-based Prestwick Library Screening Results, P. aeruginosa (fold increase in extracellular AK activity)
[12] = 50 μM final drug concentration, planktonic, cutoff for positive 3-fold increase, read-out: AK-based Prestwick Library Screening Results, S. aureus (fold increase in extracellular AK activity)

## COc1ccc(OC)c(C(O)CNC(=O)CN)c1 (stereo not shown) [Midodrine hydrochloride]
[1]; 50 μM final drug concentration, 384-well format, cutoff for positive-scoring molecules 3-fold increase, read-out: AK-based Prestwick Library Screening Results, A. baumannii (increase in extracellular AK activity)
  fold induction at 50 µM: 0.9
E. coli; 50 μM final drug concentration, 384-well format, cutoff for positive-scoring molecules 3-fold increase, read-out: AK-based Prestwick Library Screening Results, E. coli (increase in extracellular AK activity)
  fold induction at 50 µM: 1
E. faecium; 50 μM final drug concentration, 384-well format, cutoff for positive-scoring molecules 3-fold increase, read-out: AK-based Prestwick Library Screening Results, E. faecium (increase in extracellular AK activity)
  fold induction at 50 µM: 1
E. cloacae; 50 μM final drug concentration, 384-well format, cutoff for positive-scoring molecules 3-fold increase, read-out: AK-based Prestwick Library Screening Results, E. cloacae (increase in extracellular AK activity)
  fold induction at 50 µM: 1
K. pneumoniae; 50 μM final drug concentration, 384-well format, cutoff for positive-scoring molecules 3-fold increase, read-out: AK-based Prestwick Library Screening Results, K. pneumoniae (increase in extracellular AK activity)
  fold induction at 50 µM: 0.7
P. aeruginosa; 50 μM final drug concentration, 384-well format, cutoff for positive-scoring molecules 3-fold increase, read-out: AK-based Prestwick Library Screening Results, P. aeruginosa (increase in extracellular AK activity)
  fold induction at 50 µM: 0.9
[2]; 50 μM final drug concentration, 384-well format, cutoff for positive-scoring molecules 3-fold increase, read-out: AK-based Prestwick Library Screening Results, S. aureus (increase in extracellular AK activity)
  fold induction at 50 µM: 0.9

## CS(=N)(=O)CC[C@H](N)C(=O)O (stereo partly shown) [Methionine sulfoximine (L)]
[1]; [3]
  AK-based Prestwick Library Screening Results, A. baumannii (fold increase in extracellular AK activity): 1.0
E. coli; [3]
  AK-based Prestwick Library Screening Results, E. coli (fold increase in extracellular AK activity): 1.3
E. faecium; [3]
  AK-based Prestwick Library Screening Results, E. faecium (fold increase in extracellular AK activity): 1.0
E. cloacae; [3]
  AK-based Prestwick Library Screening Results, E. cloacae (fold increase in extracellular AK activity): 1.5
K. pneumoniae; [3]
  AK-based Prestwick Library Screening Results, K. pneumoniae (fold increase in extracellular AK activity): 0.9
P. aeruginosa; [3]
  AK-based Prestwick Library Screening Results, P. aeruginosa (fold increase in extracellular AK activity): 1.2
[2]; [3]
  AK-based Prestwick Library Screening Results, S. aureus (fold increase in extracellular AK activity): 1.1

## C[C@]12CCC(=O)C=C1CC[C@@H]1[C@@H]2C(=O)C[C@@]2(C)[C@H]1CC[C@]2(O)C(=O)CO [Cortisone]
[1]; [4]
  AK-based Prestwick Library Screening Results, A. baumannii (increase in extracellular AK activity): 1.0
E. coli; [4]
  AK-based Prestwick Library Screening Results, E. coli (increase in extracellular AK activity): 0.9
E. faecium; [4]
  AK-based Prestwick Library Screening Results, E. faecium (increase in extracellular AK activity): 0.9
E. cloacae; [4]
  AK-based Prestwick Library Screening Results, E. cloacae (increase in extracellular AK activity): 1.2
K. pneumoniae; [4]
  AK-based Prestwick Library Screening Results, K. pneumoniae (increase in extracellular AK activity): 0.8
P. aeruginosa; [4]
  AK-based Prestwick Library Screening Results, P. aeruginosa (increase in extracellular AK activity): 1.0
[2]; [4]
  AK-based Prestwick Library Screening Results, S. aureus (increase in extracellular AK activity): 0.8

## Cn1c([N+](=O)[O-])cnc1COC(N)=O [Ronidazole]
[1]; planktonic A. baumannii, 50 μM final drug concentration, positive cutoff 3-fold increase, read-out: AK-based Prestwick library screening result, A. baumannii (fold increase in extracellular AK activity)
  fold induction at 50 µM: 1.6
E. coli; planktonic E. coli, 50 μM final drug concentration, positive cutoff 3-fold increase, read-out: AK-based Prestwick library screening result, E. coli (fold increase in extracellular AK activity)
  fold induction at 50 µM: 1.1
E. faecium; planktonic E. faecium, 50 μM final drug concentration, positive cutoff 3-fold increase, read-out: AK-based Prestwick library screening result, E. faecium (fold increase in extracellular AK activity)
  fold induction at 50 µM: 1.1
E. cloacae; planktonic E. cloacae, 50 μM final drug concentration, positive cutoff 3-fold increase, read-out: AK-based Prestwick library screening result, E. cloacae (fold increase in extracellular AK activity)
  fold induction at 50 µM: 1.6
K. pneumoniae; planktonic K. pneumoniae, 50 μM final drug concentration, positive cutoff 3-fold increase, read-out: AK-based Prestwick library screening result, K. pneumoniae (fold increase in extracellular AK activity)
  fold induction at 50 µM: 1.7
P. aeruginosa; planktonic P. aeruginosa, 50 μM final drug concentration, positive cutoff 3-fold increase, read-out: AK-based Prestwick library screening result, P. aeruginosa (fold increase in extracellular AK activity)
  fold induction at 50 µM: 1
[2]; planktonic S. aureus, 50 μM final drug concentration, positive cutoff 3-fold increase, read-out: AK-based Prestwick library screening result, S. aureus (fold increase in extracellular AK activity)
  fold induction at 50 µM: 1.3

## Thioproperazine dimesylate
[1]; planktonic A. baumannii, 50 μM final drug concentration, 384-well, cutoff for positive-scoring molecules 3-fold increase
  AK-based Prestwick Library Screening Results: A. baumannii (increase in extracellular AK activity): 1.7
E. coli; planktonic E. coli, 50 μM final drug concentration, 384-well, cutoff for positive-scoring molecules 3-fold increase
  AK-based Prestwick Library Screening Results: E. coli (increase in extracellular AK activity): 1.5
E. faecium; planktonic E. faecium, 50 μM final drug concentration, 384-well, cutoff for positive-scoring molecules 3-fold increase
  AK-based Prestwick Library Screening Results: E. faecium (increase in extracellular AK activity): 1.0
E. cloacae; planktonic E. cloacae, 50 μM final drug concentration, 384-well, cutoff for positive-scoring molecules 3-fold increase
  AK-based Prestwick Library Screening Results: E. cloacae (increase in extracellular AK activity): 1.3
K. pneumoniae; planktonic K. pneumoniae, 50 μM final drug concentration, 384-well, cutoff for positive-scoring molecules 3-fold increase
  AK-based Prestwick Library Screening Results: K. pneumoniae (increase in extracellular AK activity): 1.1
P. aeruginosa; planktonic P. aeruginosa, 50 μM final drug concentration, 384-well, cutoff for positive-scoring molecules 3-fold increase
  AK-based Prestwick Library Screening Results: P. aeruginosa (increase in extracellular AK activity): 1.1
[2]; planktonic S. aureus, 50 μM final drug concentration, 384-well, cutoff for positive-scoring molecules 3-fold increase
  AK-based Prestwick Library Screening Results: S. aureus (increase in extracellular AK activity): 1.0

## Cl.OC1CCCCC1N1CCC(c2ccccc2)CC1 (stereo not drawn) [L(−)-vesamicol hydrochloride]
[1]; [5]
  AK-based Prestwick Library Screening Results, A. baumannii (fold increase in extracellular AK activity): 0.8
E. coli; [5]
  AK-based Prestwick Library Screening Results, E. coli (fold increase in extracellular AK activity): 0.8
E. faecium; [5]
  AK-based Prestwick Library Screening Results, E. faecium (fold increase in extracellular AK activity): 0.9
E. cloacae; [5]
  AK-based Prestwick Library Screening Results, E. cloacae (fold increase in extracellular AK activity): 1.2
K. pneumoniae; [5]
  AK-based Prestwick Library Screening Results, K. pneumoniae (fold increase in extracellular AK activity): 0.7
P. aeruginosa; [5]
  AK-based Prestwick Library Screening Results, P. aeruginosa (fold increase in extracellular AK activity): 0.8
[2]; [5]
  AK-based Prestwick Library Screening Results, S. aureus (fold increase in extracellular AK activity): 0.8

## CO[C@H]1/C=C/O[C@@]2(C)Oc3c(C)c(O)c4c(O)c(c(/C=N/N5CCN(C)CC5)c(O)c4c3C2=O)NC(=O)/C(C)=C\C=C\[C@H](C)[C@H](O)[C@@H](C)[C@@H](O)[C@@H](C)[C@H](OC(C)=O)[C@@H]1C [Rifampicin]
[1]; [6]
  fold induction at 50 µM: 3
E. coli; [7]
  fold induction at 50 µM: 1.3
E. faecium; [8]
  fold induction at 50 µM: 0.8
E. cloacae; [9]
  fold induction at 50 µM: 1.4
K. pneumoniae; [10]
  fold induction at 50 µM: 0.7
P. aeruginosa; [11]
  fold induction at 50 µM: 0.6
[2]; [12]
  fold induction at 50 µM: 0.8

## C=CCN1CC[C@]23c4c5ccc(O)c4O[C@H]2C(=O)CC[C@@]3(O)[C@H]1C5 [Naloxone hydrochloride]
[1]; read-out: AK-based Prestwick Library Screening Results, A. baumannii (increase in extracellular AK activity)
  fold induction at 50 µM: 0.8
E. coli; read-out: AK-based Prestwick Library Screening Results, E. coli (increase in extracellular AK activity)
  fold induction at 50 µM: 0.9
E. faecium; read-out: AK-based Prestwick Library Screening Results, E. faecium (increase in extracellular AK activity)
  fold induction at 50 µM: 0.8
E. cloacae; read-out: AK-based Prestwick Library Screening Results, E. cloacae (increase in extracellular AK activity)
  fold induction at 50 µM: 1.1
K. pneumoniae; read-out: AK-based Prestwick Library Screening Results, K. pneumoniae (increase in extracellular AK activity)
  fold induction at 50 µM: 0.6
P. aeruginosa; read-out: AK-based Prestwick Library Screening Results, P. aeruginosa (increase in extracellular AK activity)
  fold induction at 50 µM: 0.8
[2]; read-out: AK-based Prestwick Library Screening Results, S. aureus (increase in extracellular AK activity)
  fold induction at 50 µM: 0.7

## C[C@H](CCC(=O)NCC(=O)O)[C@H]1CC[C@H]2[C@@H]3[C@H](O)C[C@@H]4C[C@H](O)CC[C@]4(C)[C@H]3C[C@H](O)[C@]12C [Glycocholic acid]
[1]; [6]
  fold induction at 50 µM: 1.1
E. coli; [7]
  fold induction at 50 µM: 1.1
E. faecium; [8]
  fold induction at 50 µM: 1.1
E. cloacae; [9]
  fold induction at 50 µM: 1.4
K. pneumoniae; [10]
  fold induction at 50 µM: 1
P. aeruginosa; [11]
  fold induction at 50 µM: 1.1
[2]; [12]
  fold induction at 50 µM: 1.2

## COc1cc(NS(=O)(=O)c2ccc(N)cc2)ncn1 [Sulfamonomethoxine]
[1]; 50 μM final drug concentration, planktonic, cutoff for positive-scoring molecules 3-fold increase, read-out: AK-based Prestwick Library Screening Results, A. baumannii (fold increase in extracellular AK activity)
  fold induction at 50 µM: 1.6
E. coli; 50 μM final drug concentration, planktonic, cutoff for positive-scoring molecules 3-fold increase, read-out: AK-based Prestwick Library Screening Results, E. coli (fold increase in extracellular AK activity)
  fold induction at 50 µM: 0.9
E. faecium; 50 μM final drug concentration, planktonic, cutoff for positive-scoring molecules 3-fold increase, read-out: AK-based Prestwick Library Screening Results, E. faecium (fold increase in extracellular AK activity)
  fold induction at 50 µM: 0.9
E. cloacae; 50 μM final drug concentration, planktonic, cutoff for positive-scoring molecules 3-fold increase, read-out: AK-based Prestwick Library Screening Results, E. cloacae (fold increase in extracellular AK activity)
  fold induction at 50 µM: 1.1
K. pneumoniae; 50 μM final drug concentration, planktonic, cutoff for positive-scoring molecules 3-fold increase, read-out: AK-based Prestwick Library Screening Results, K. pneumoniae (fold increase in extracellular AK activity)
  fold induction at 50 µM: 0.8
P. aeruginosa; 50 μM final drug concentration, planktonic, cutoff for positive-scoring molecules 3-fold increase, read-out: AK-based Prestwick Library Screening Results, P. aeruginosa (fold increase in extracellular AK activity)
  fold induction at 50 µM: 1
[2]; 50 μM final drug concentration, planktonic, cutoff for positive-scoring molecules 3-fold increase, read-out: AK-based Prestwick Library Screening Results, S. aureus (fold increase in extracellular AK activity)
  fold induction at 50 µM: 0.7
